{
  "source": "patent US20160061849A1",
  "about": "“LIPIDOMIC BIOMARKERS” (UNITHER VIROLOGY, LLC, priority 2014, published 2016)",
  "key": {"Huh7.5 cells": {"system": "Huh7.5 cells", "experiment": "\"Total lipid\" fatty acid profiling (GCMS) of hepatoma cells treated with iminosugars", "format": "cell-based, human", "conditions": "uninfected state, antiviral concentrations, 4 days", "method": "Methods for cell culture of replication-competent HCV in human hepatoma cells were essentially as described (Pollock, Nichita et al. 2010). Huh7.5 cells (Apath, LLC) were grown in DMEM supplemented with 100 U/ml penicillin, 100 μg/ml streptomycin, 2 mM L-glutamine, 1×MEM, and 10% FBS. All incubations were at 37° C./5% CO2. The effect of iminosugar treatment on cellular lipid profiles was determined for both uninfected and HCVcc-infected cells. In order to infect cells with HCV strain Jc1 (genotype 2a), Huh7.5 cells were incubated for 1 h in the presence of the virus at a multiplicity of infection (MOI)=0.02 using a viral stock of known titer. Cells were passaged for approximately 2 weeks to allow the infection to reach close to 100% of cells as determined by HCV core protein immunofluorescence, in order to avoid dilution of ‘infected’ lipidomic signatures by uninfected cells in partially infected cultures. Both HCV-infected and uninfected cells were then incubated in the presence or absence of iminosugars for 4 days, at which point they were harvested using trypsin/EDTA, washed 3 times in cold PBS, counted using trypan blue staining, and final cell pellets were resuspended in methanol:acetone (vol 1:1) prior to lipid profiling, A small volume of each sample was used for total protein estimation using the Bradford protein assay (Bio-Rad). […]"}, "obese mice": {"system": "obese mice", "conditions": "cited from earlier work"}, "ER alpha glucosidases": {"system": "ER alpha glucosidases", "conditions": "cited from earlier work"}, "PI3 kinase": {"system": "PI3 kinase", "conditions": "cited from earlier work"}},
  "data": [
    {"smiles": "OC[C@@H]1[C@@H](O)[C@H](O)[C@@H](O)CN1CCCCCOCC12CC3CC(CC(C3)C1)C2", "note": "[AMP-DNJ, N-(5-adamantane-1-yl-methoxy-pentyl)-deoxynojirimycin]", "values": [
      {"measurement": "Mead acid component of the global fatty acid composition", "setting": "Huh7.5 cells", "value": "almost doubled"},
      {"measurement": "fatty acid synthase activity", "setting": "obese mice", "value": "decreases fatty acid synthase activity"},
      {"measurement": "hepatic insulin sensitivity", "setting": "obese mice", "value": "improves hepatic insulin sensitivity"},
      {"measurement": "hepatic steatosis", "setting": "obese mice", "value": "abolishes hepatic steatosis"}
    ]},
    {"smiles": "CCCCN1C[C@H](O)[C@@H](O)[C@@H](O)[C@H]1CO", "note": "[NB-DGJ, N—(N-butyl) deoxygalactojirimycin]", "values": [
      {"measurement": "inhibitory activity towards ER alpha glucosidases", "setting": "ER alpha glucosidases", "value": "no inhibitory activity"}
    ]},
    {"smiles": "CCCCC/C=C\\C/C=C\\C/C=C\\C/C=C\\CCCC(=O)O", "note": "[arachidonic acid]", "values": [
      {"measurement": "activation of PI3 kinase by insulin", "setting": "PI3 kinase", "value": "blocks the activation"}
    ]},
    {"smiles": "CCCCN1C[C@H](O)[C@@H](O)[C@H](O)[C@H]1CO", "note": "[NB-DNJ, N-butyl-deoxynojirimycin]", "values": [
      {"measurement": "inhibitory activity towards ER alpha glucosidases", "setting": "ER alpha glucosidases", "value": "also inhibits glucosidase"}
    ]}
  ]
}
